Test: Solubility of paclitaxel and docetaxel in triglycerides
Type: physicochemical
Settings: no recrystallization at room temperature; for Solubility in Labrafac CC: triglyceride Labrafac CC, C8 content 56.7%; for Solubility in Miglyol 810 N: triglyceride Miglyol 810 N, C8 content 70.4%; for Solubility in Tricaprylin: triglyceride Tricaprylin, C8 >99%
Experimental: A solution of docetaxel or paclitaxel in triglycerides, which will constitute the inner core of the lipid nanocapsules, is prepared by dissolving the drug into the triglyceride at 75° C. The amount of drug is adjusted in order to obtain solutions that will not recrystallize upon cooling to room temperature.

SMILES | Solubility in Labrafac CC | Solubility in Miglyol 810 N | Solubility in Tricaprylin
CC(=O)O[C@@]12CO[C@@H]1C[C@H](O)[C@@]1(C)C(=O)[C@H](O)C3=C(C)[C@@H](OC(=O)[C@H](O)[C@@H](NC(=O)OC(C)(C)C)c4ccccc4)C[C@@](O)([C@@H](OC(=O)c4ccccc4)[C@H]21)C3(C)C [Docetaxel, docetaxel] | 2 % w/w | 3.9 % w/w | 7 % w/w
CC(=O)O[C@H]1C(=O)[C@@]2(C)[C@H]([C@H](OC(=O)c3ccccc3)[C@]3(O)C[C@H](OC(=O)[C@H](O)[C@@H](NC(=O)c4ccccc4)c4ccccc4)C(C)=C1C3(C)C)[C@]1(OC(C)=O)CO[C@@H]1C[C@@H]2O [Paclitaxel, paclitaxel] | 1.6 % w/w | 2.7 % w/w | 6 % w/w

Reference: US20050214378A1, “Stealth lipid nanocapsules, methods for the preparation thereof and use thereof as a carrier for active principle(s)” (ETHYPHARM, priority 2002, published 2005)
